Laboratory results reported in patent US20230103554A1, “TNFa SIGNALING [sequence] TUMOR-PROMOTING INFLAMMATION THAT CAN BE TARGETED TO THERAPY” (Baylor College of Medicine, priority 2020, published 2023).

System: CHLA-255
Assay: CellTrace Violet proliferation of NB co-cultured with monocytes
Assay type: cell-based, human
Settings: CHLA-255 CTV-pulsed + monocytes, 10 μg/mL etanercept, four days
Method: (15A) TNFα level within co-culture supernatant was determined by TNFα ELISA. Mean TNFα concentration±SD of representative data from two monocyte donors run in triplicate. (FIG. 15B) Supernatant IL-6 levels were determined by ELISA. Mean IL-6 concentration±SD of representative data from two monocyte donors run in triplicate (FIG. 15C) Intracellular IκBα expression level within CD14+GD2− monocyte population was determined by flow cytometry and IκBα MFI was normalized to monocyte only control. Mean normalized IκBα MFI±SD and representative from experiments with two monocyte donors run in triplicate. (FIG. 15D) Intracellular IκBα expression level within CD14-GD2+NB population was determined by flow cytometry and IκBα MFI was normalized to NB only control. […] NB luminescence was used to evaluate relative viability of cell line. Results are normalized mean luminescence±SD, n=6 replicates per condition. […] Cells undergoing multiple (2+) divisions were quantified as a percentage of total cells and normalized to NB (0) and Ctrl (1). […]
Monocytes were directly cultured with wild-type or TNF, TNFR1, TNFR2 KO NB cell lines in ULA plates for 24 hours. Activation of NF-kB in monocytes and NB was measured by flow cytometry and cytokine production measured by ELISA from co-culture supernatant. […] Luminescence was measured using a TECAN Spark plate reader (TECAN). […]

## etanercept
  reduction of monocyte-induced increase in NB cells undergoing multiple divisions: 56%
